Target: T1, KDM4B (Homo sapiens, UniProt O94953)
T1 sequence (O94953 1-500): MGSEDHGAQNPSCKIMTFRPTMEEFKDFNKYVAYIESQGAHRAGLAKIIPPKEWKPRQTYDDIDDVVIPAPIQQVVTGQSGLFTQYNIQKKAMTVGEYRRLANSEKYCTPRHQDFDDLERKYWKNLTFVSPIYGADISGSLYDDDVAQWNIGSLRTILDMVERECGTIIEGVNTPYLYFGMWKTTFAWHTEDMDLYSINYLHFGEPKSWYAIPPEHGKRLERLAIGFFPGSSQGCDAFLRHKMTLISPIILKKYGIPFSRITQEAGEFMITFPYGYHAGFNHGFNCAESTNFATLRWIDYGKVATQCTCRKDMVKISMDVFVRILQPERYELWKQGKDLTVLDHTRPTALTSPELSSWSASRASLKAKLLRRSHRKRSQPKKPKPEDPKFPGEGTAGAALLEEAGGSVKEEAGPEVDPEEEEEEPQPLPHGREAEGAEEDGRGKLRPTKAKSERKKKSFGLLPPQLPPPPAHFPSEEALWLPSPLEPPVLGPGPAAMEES
Assay: 1H-15N TROSY-HSQC NMR shifts
Format: biochemical

IC50: ~10 nM
Compound: O=C(NCCCc1ccccc1)c1cccc(-c2cc(O)c3ncccc3c2)c1 [B3, NCGC00244536]
